Source: patent US11400104B2, “Skeletal removal of bisphosphonates” (The Regents of the University of California, priority 2016, dated 2022)
Entries after “also recorded” stand apart in the source; their conditions may differ. Values belong to the compound of their own block, whether it stands above or below them.

Columns and labels:
[1] = displacement of a pre-adsorbed FL-BP from CaP-coated culture wells by a different FL-BP; assay type: binding; conditions: FIG. 1 Panel A
Method: FIG. 1, Panels A-C, illustrates displacement of an adsorbed fluorescently labeled BP (FL-BP) from a hydroxyapatite surface mimicking bone by a different fluorescently labeled BP. Synthetic bone/dentine (calcium phosphate, CaP)-coated culture wells were pre-treated with either ROX-RIS or 5-FAM-RIS (50 μM) After challenged by serially diluted doses of 5-FAM-RIS or ROX-RIS (from 0 to 50 μM), respectively, Carboxyl-X-Rhodamine (ROX) and carboxyfluorescein (FAM) fluorescence intensities of the CaP-coated wells were measured. Panel A: ROX-RIS in CaP (first bars of each set) remained near the pre-adsorbed 50 μM level until 5 μM or greater concentrations of 5-FAM-RIS challenged. In contrast, 5-FAM-RIS (second bars of each set) was rapidly displaced by concentrations of ROX-RIS as low as 1 μM. Panel B: Pre-adsorbed FAM-RIS was replaced by ROX-RIS between 10 μM to 50 μM. Panel C: The quantitative measurement of FAM and ROX fluorescent signals was conducted by standardized fluorescent biophotonics and a proprietary program (LAS3000, FUJIFILM, Tokyo, Japan).

Rap1A prenylation = experiment: Western blot of Rap1A prenylation in J774 macrophages; assay type: cell-based, mouse; conditions: 10 μM and 100 μM dose
[2] = tested on: ZOL-induced mouse BRONJ model; experiment: ZOL-induced mouse BRONJ/ONJ model (ZOL IV injection followed by maxillary first molar extraction); assay type: in vivo; conditions: for development of ONJ-like lesions at the tooth extraction sites: ZOL 500 μg/kg IV, intra-oral injection one day prior to extraction, 14 days after extraction, FIG. 21; for histology of maxilla at the tooth extraction site: ONJ-like lesion: 2 weeks after extraction, one time oral injection in ZOL-mice, FIG. 20; for development of ONJ-like lesions: FIG. 19C; for ZOL-injected mice with open oral wound: 500 μg/Kg ZOL via tail vein
Method: AF647-ZOL was applied by intra-oral injection or IV injection 1 day prior to tooth extraction. FIG. 16B are images of mouse maxilla and the oral mucosa inflammation and swelling (white dotted lines, left and right panels) with various degrees of jawbone exposure (arrow) at the tooth extraction site of ZOL-treated mice (BRONJ control: n−4). […]
Panel A is a diagram of the experimental time line. Mice treated by IV injection of ZOL (500 μg/kg) received an intra-oral injection of AF647-ZOL, MHDP or ETI (etidronate) one day prior to maxillary 1″ molar extraction. The development of ONJ was evaluated 14 days after tooth extraction.
The C57BL/6J (B6) mice model of ONJ is used. The consistent tissue source in this study is mouse maxillary bone with or without tooth extraction, as well as femurs, mandibles and L4/L5 lumber bones. Tooth extraction animal models for studying wound healing in mice have been well established in our and other laboratories. Systemic bisphosphonate treatment is accomplished by IV injection and the proposed local application of FL-BP is accomplished by intraoral injection to gingival/palatal tissue of mouse maxilla. Mice are subjected to maxillary molar extraction. After anesthesia and vital signs checked, the animal is placed on a bed supporting the isoflurane tubing while keeping the mouth opening. Ophthalmic ointment (bland, e.g., Lacrilube) is applied. The maxillary molar area is wiped with 0.12% Chlorhexidine gluconate solution (Peridex, oral rinse). An autoclaved dental explorer is used as an exodontia elevator after careful reflection of the cervical mucosa to minimize post-extraction discomfort. An autoclaved cotton swab is placed on the extraction socket until the initial blood coagulation is established. Maxillary 1st molar is then extracted unilaterally from so that the remaining untreated side can be utilized for chewing. In our previous experiments, the entire procedure takes about 5-15 minutes. […]
In a preliminary study female B6 mice were injected 500 μg/Kg ZOL (equivalent to 200 μl of 350 μM ZOL) via tail vein and one week later, maxillary left first molar was extracted. […]
Therefore, as schematically shown in FIG. 19B mouse maxillae were treated with ZOL and then either 2 μg of MHDP was orally injected to the site of the molar to be extracted or 100 μg of MHDP was IV injected and the sites of molar extraction of treated mouse maxilla were compared to controls.

[3] = tested on: mouse femur trabecular bone; experiment: micro CT evaluation of mouse femur trabecular structure (anti-resorptive function in vivo); conditions: for anti-resorptive effect: vs saline (0.9% NaCl) vehicle
Method: FIG. 19A to FIG. 19C present evidence that certain alkylidene bisphosphonates can be used to displace active BPs in vivo in the mouse model. […] FIG. 19B outlines the protocol for the experiments using MHDP to treat C57B16 mice. An ONJ-like lesion was generated by ZOL IV injection into the mouse, followed by extraction of the maxillary first molar. One day prior to the tooth extraction, a group of mice received intra-oral injection of 2 μg MHDP and another group received IV injection of 100 μg MHDP. FIG. 19C presents images of the mouse maxilla.
This study determines the anti-resorptive function of FL-BP in vivo, as compared to ZOL. Female B6 mice were injected with 50 μM ZOL (n=6), 50 μM FL-BP (n=6) or 0.9% NaCl vehicle solution (control: n=6) via tail vein. Three weeks later, mice were euthanized and femur and L4/L5 were harvested. After fixed in 10% buffered formalin, bone samples were subjected to micro CT analysis. The anti-resorptive function were quantitatively established by the trabecular bone three-dimensional morphometry (e.g., BV/TV, Tb.N, Tb.Th, TbSp). FL-BPs with minimal or no pharmacological BP function are used.
Mice were IV injected with 0.9% NaCl (vehicle solution), ZOL (184 μM×100 μL=5.0 μg/animal) or AF647-ZOL (184 μM×100 μL=22.0 μg/animal) and femurs were harvested 2 weeks after injection. The micro CT data were compared.

mouse maxilla = experiment: preliminary study: fluorescent imaging of mouse maxilla after 5-FAM-ZOL IV or ROX-RIS intraoral injection; assay type: in vivo; conditions: single intraoral 25 μl of 50 μM; 2 days after
Method: In a preliminary study female C57B16/J (B6) mice (8 weeks old) received either a single IV injection via tail vein of 200 μl of 350 μM 5-FAM-ZOL (5-FAM-ZOL, #BV111001, BioVinc LLC, Culver City, Calif.) or a single intraoral injection of 25 μl of 50 μM ROX-RIS (5(6)-ROX-RIS, #BV150101, BioVinc LLC, CA) to gingival/palatal tissue at maxillary left first molar (white arrow in FIG. 11). […], mice were euthanized 3 weeks after the IV injection of 5-FAM-ZOL or 2 days after the intraoral injection of ROX-RIS. Skulls (containing maxilla) were harvested and standardized fluorescent biophotonics image was obtained using an excitation wavelength of 460 nm and the 515 nm filter (LAS3000, FUJIFILM Corp).

[4] = hydroxyapatite (HAP) binding affinity, relative retention times normalized to RIS; conditions: FIG. 7
Method: FIG. 7 is a bar graph showing hydroxyapatite (HAP) binding affinity of Zoledronate (ZOL), ROX-RIS, 5-FAM-ZOL, and AF647-ZOL. Relative retention times were normalized to RIS.
Hydroxyapatite assays indicate that the FL-BPs generally retain substantial affinity for bone mineral that reflect the affinity of the BP component and to a lesser extent, the affinity of the conjugated fluorophore. Hydroxyapatite (Macro-Prep® Ceramic hydroxyapatite Type II […]) was obtained from Bio-Rad Laboratories, Inc. Hercules, Calif. Accurately weighed hydroxyapatite powder (1.4-1.6 mg) was suspended in a 4 mL clear vial containing the appropriate volume of assay buffer (0.05% (wt/vol) Tween20, 10 μM EDTA and 100 mM HEPES pH=7.4) for 3 hours. Hydroxyapatite was then incubated with increasing amounts of FAM-BP and ROX-BP (0, 25, 50, 100, 200, and 300 μM). Samples were gently shaken for 3 hours at 37° C. in appropriate volume of assay buffer (0.05% (wt/vol) Tween20, 10 μM EDTA and 100 mM HEPES pH=7.4). Subsequent to the equilibrium period, the vials were centrifuged at 10,000 rpm for 5 minutes to separate the solids and the supernatant. 0.3 mL of the supernatant was collected and the equilibrium solution concentration is measured by using Shimadzu UV-VIS spectrometer. For the calibration series, FL-BP probe standards were prepared by serial dilution from the stock solution with the same isotherm buffer to give the range from 0 to 400 μM. Calibration curves were constructed using standard solutions of the target FL-BPs. Fluorescent emission can also be used to calculate the binding parameters. Nonspecific binding was measured with a similar procedure in the absence of hydroxyapatite as control. Binding parameters (Kd and Bmax, represent the equilibrium dissociate constant and maximum number of binding sites, respectively) were calculated using the PRISM program (Graphpad, USA). The binding parameters of each compound was measured in 5 independent experiments. […]

[5] = IV 184 μM×100 μL, femurs 2 weeks after injection

- concentration of challenging 5-FAM-RIS up to which pre-adsorbed ROX-RIS remained near the pre-adsorbed level ([1]; CaP wells pre-treated with 50 μM ROX-RIS): ≥ 5 µM
SMILES: O=C(NCC(O)C[n+]1cccc(CC(O)(P(=O)(O)O)P(=O)(O)O)c1)c1ccc(-c2c3ccc(=O)cc-3oc3cc(O)ccc23)c(C(=O)O)c1 (centres unmarked) [5-FAM-RIS]

SMILES: CC(O)(P(=O)(O)O)P(=O)(O)O [ETI, ethylene hydroxyl bisphosphonate, reference compound]
- inhibition of Rap1A prenylation (accumulated unprenylated Rap1A) (Rap1A prenylation): not
- development of ONJ-like lesions at the tooth extraction sites [2]: appeared to be prevented

SMILES: O=P(O)(O)C(O)P(=O)(O)O [MHDP, methylene hydroxyl bisphosphonate]
- inhibition of Rap1A prenylation (accumulated unprenylated Rap1A) (Rap1A prenylation): not
- anti-resorptive effect ([3]; FIG. 19A): lack of anti-resorptive activity; also recorded: lack of anti-resorptive effect
- histology of maxilla at the tooth extraction site: ONJ-like lesion [2]: did not develop an ONJ-like lesion
- development of ONJ-like lesions ([2]; IV injection of 100 μg one day prior to extraction): prevented the development of ONJ-like lesions
- development of ONJ-like lesions at the tooth extraction sites [2]: appeared to be prevented
- development of ONJ-like lesions ([2]; intra-oral injection of 2 μg one day prior to extraction): prevented the development of ONJ-like lesions

- fluorescent signal in palatal bone around the injection site (mouse maxilla): localized red fluorescent signal
- influence of the fluorophore on hydroxyapatite affinity [4]: enhancement
- concentration of challenging ROX-RIS that displaced pre-adsorbed 5-FAM-RIS ([1]; CaP wells pre-treated with 50 μM 5-FAM-RIS): ≥ 1 µM
SMILES: O=C(NCC(O)C[n+]1cccc(CC(O)(P(=O)(O)O)P(=O)(O)O)c1)c1ccc(C2=c3cc4c5c(c3Oc3c2cc2c6c3CCCN6CCC2)CCC[N+]=5CCC4)c(C(=O)O)c1 (centres unmarked) [ROX-RIS]

SMILES: O=P(O)(O)C(O)(Cn1ccnc1)P(=O)(O)O [ZOL, zoledronate]
- inhibition of Rap1A prenylation (accumulated unprenylated Rap1A) (Rap1A prenylation): inhibited Rap1A prenylation
- bone volume over tissue volume (BV/TV) ([3]; FIG. 19A, trabecular bone): increased
- connectivity density (ConnD) ([3]; FIG. 19A, trabecular bone): decreased
- anti-resorptive effect ([3]; FIG. 19A): significant anti-resorptive effect
- connectivity density [3, 5]: nearly doubled
- volume of femur trabecular bone (BV/TV) [3, 5]: nearly doubled
- bone structural parameters ([3]; IV 184 μM×100 μL, femurs 2 weeks after injection, FIG. 14): significantly increased
- ZOL-injected mice with open oral wound ([2]; 2 weeks of tooth extraction): 100%
- ZOL-injected mice with open oral wound ([2]; 4 weeks of tooth extraction): 50%
- histology of maxilla at the tooth extraction site: ONJ-like lesion [2]: development of an ONJ-like lesion
- tooth extraction wound healing in ZOL-injected mice ([2]; ZOL IV, then maxillary first molar extraction): delayed wound healing with gingival swelling and jawbone exposure
